Read-outs that look alike come from different tables or passages of the source.
Molecular target: T1, LRRK2 (endogenous, HiBit tagged) (Homo sapiens, UniProt Q5S007)
T1 construct: endogenous in cells; host or cells: HEK293 cells with HiBit knock-in at the endogenous LRRK2 locus, stably expressing firefly luciferase
Assay: Endogenous LRRK2 degradation assay, endogenous gene C-terminally HiBit-tagged in HEK293 cells (Nano-Glo Dual Luciferase)
Format: cell-based
Excerpt: Exemplary Assay for Testing LRRK2 Degradation Driven by Exemplary Hetero-Bifunctional Compounds Designed to Target LRRK2
The assay measures the degradation of LRRK2 in cells where the C-terminus (3′) of the endogenous gene has been tagged with a HiBit sequence in HEK293 cells. The cells also express firefly luciferase, expressed from a Cytomegalovirus promoter and introduced into the HiBit tagged cells and stably expressed. The Nano-Glo® Dual Luciferase Reporter Assay System (Promega™, Madison, WI) was utilized.
Day 1—Preparation of Compound and Assay Plates. Two sets of plates were prepared: a triplicate set for the HiBit assay in white 384-well plates and a triplicate set of plate in black 384-well plates for the Alamar Blue cell viability assay. Briefly, the growth media (DMEM+Glutamax-10% fetal bovine serum-1% Penicillin-Streptomicin) from two T128 flasks was aspirated from the flasks. Cells were washed with Dulbecco's Phosphate Buffered Saline (dPBS) and aspirated. Trypsin (3 mL per flask) was added and the flasks were incubated for 2-3 minutes.
Ten mL of OptiMEM-10% fetal bovine-1% penicillin-streptomycin (hereinafter, “OptiMEM media”) was added to the flask and the cells and transferred to a 50 mL conical tube. A cell count (25 ul of cell into Effendorf vial+25 ul of Trypan Blue Stain) was performed and the cell density adjusted to 15,000 cell/45 μl/well (3.33×10^5/mL) in OptiMEM media.
Fourty-five microliters of the cell suspension (15,000 cells) was aliquoted to each well of the white 384-well plate. The plates incubated at room temperature for 10 minutes before being placed in the 37° C.+5% CO2 incubator overnight
Day 2—Compound Treatment. Exemplary compounds were prepared at a 1 mM starting concentration and 1:3 serial dilution for 11 points CRC prepared and stored in the freezer. The Master Compound Plate was thawed overnight at room temperature. DMSO (20 μL) was added into column 24 of the Master Compound Plate for negative control and 20 μL of 300 μM of Compound 4 in column 23 as positive control.
Intermediate Compound Plate with 4% DMSO in OptiMEM Media. DMSO was added to warm OptiMEM media to achieve a 4% DMSO solution (approximately 50 mL/plate). One-hundred microliters of the OptiMEM-4% DMSO was aliquoted to each well of 384-Well Deep Well Microplates.
The Master Compound Plate and the Intermediate Compound Plate were spun down.
One microliter of compound from the Master Compound Plate was transferred into the Intermediate plate (a 1:100 dilution). The diluted mixture was mixed and 5 μL transferred into the assay plate (a 1:10 dilution) for the final starting concentration of 1 μM. The Treated Assay plates were incubated for 24 hours at 37° C.+5% CO2. The Master Compound Plate was sealed and store at room temperature for a second run that was performed within a week.
Day 3—HiBit Assay. Five microliters of Alamar Blue was added to each well of the black 384-well plates. The plates were incubated for 2 hours in the incubator (37° C.+5% CO2) and at room temperature for one hour. Fluorescence of each plate was read on a plated reader for the Alamar Blue viability assay.
One set of white assay plates was warmed to room temperature (45 minute).
The One Glo luciferase mixture was prepared. The media from white 384-well assay plates was aspirated. Twenty-five μL of the One Glo luciferase mixture was added to each well of the assay plates. The plates were incubated on the bench (room temperature) for 45 minutes, including 10 minutes of shaking at 700 rpm. The luminescence of each plate was read on a plate reader.
1:100 DLR substrate and 1:100 LgBiT Protein dilution were added to the Promega Stop and Glo buffer and mixed just before addition to assay plates. Twenty-five microliters of Stop and Glo mixture was added to each well. Assay plates incubated for at least 45 minutes, including 10 minutes of shaking at 700 rpm. The luminescence of each plate was read on a plate reader.
Analysis of LRRK2 HiBit Screening assays. […]

[1] = endogenous HiBit-tagged LRRK2 in HEK293 cells, 24 hours treatment, read-out: Endogenous WT DC50
[2] = endogenous HiBit-tagged LRRK2 in HEK293 cells, 24 hours treatment, read-out: Endogenous WT Dmax
[3] = endogenous HiBit-tagged LRRK2 in HEK293 cells, 24 hours treatment, read-out: **Endogenous WT Dmax (%)
[4] = endogenous HiBit-tagged LRRK2 in HEK293 cells, 24 hours treatment, read-out: *Endogenous WT DC50

T1 sequence (Q5S007 whole entry): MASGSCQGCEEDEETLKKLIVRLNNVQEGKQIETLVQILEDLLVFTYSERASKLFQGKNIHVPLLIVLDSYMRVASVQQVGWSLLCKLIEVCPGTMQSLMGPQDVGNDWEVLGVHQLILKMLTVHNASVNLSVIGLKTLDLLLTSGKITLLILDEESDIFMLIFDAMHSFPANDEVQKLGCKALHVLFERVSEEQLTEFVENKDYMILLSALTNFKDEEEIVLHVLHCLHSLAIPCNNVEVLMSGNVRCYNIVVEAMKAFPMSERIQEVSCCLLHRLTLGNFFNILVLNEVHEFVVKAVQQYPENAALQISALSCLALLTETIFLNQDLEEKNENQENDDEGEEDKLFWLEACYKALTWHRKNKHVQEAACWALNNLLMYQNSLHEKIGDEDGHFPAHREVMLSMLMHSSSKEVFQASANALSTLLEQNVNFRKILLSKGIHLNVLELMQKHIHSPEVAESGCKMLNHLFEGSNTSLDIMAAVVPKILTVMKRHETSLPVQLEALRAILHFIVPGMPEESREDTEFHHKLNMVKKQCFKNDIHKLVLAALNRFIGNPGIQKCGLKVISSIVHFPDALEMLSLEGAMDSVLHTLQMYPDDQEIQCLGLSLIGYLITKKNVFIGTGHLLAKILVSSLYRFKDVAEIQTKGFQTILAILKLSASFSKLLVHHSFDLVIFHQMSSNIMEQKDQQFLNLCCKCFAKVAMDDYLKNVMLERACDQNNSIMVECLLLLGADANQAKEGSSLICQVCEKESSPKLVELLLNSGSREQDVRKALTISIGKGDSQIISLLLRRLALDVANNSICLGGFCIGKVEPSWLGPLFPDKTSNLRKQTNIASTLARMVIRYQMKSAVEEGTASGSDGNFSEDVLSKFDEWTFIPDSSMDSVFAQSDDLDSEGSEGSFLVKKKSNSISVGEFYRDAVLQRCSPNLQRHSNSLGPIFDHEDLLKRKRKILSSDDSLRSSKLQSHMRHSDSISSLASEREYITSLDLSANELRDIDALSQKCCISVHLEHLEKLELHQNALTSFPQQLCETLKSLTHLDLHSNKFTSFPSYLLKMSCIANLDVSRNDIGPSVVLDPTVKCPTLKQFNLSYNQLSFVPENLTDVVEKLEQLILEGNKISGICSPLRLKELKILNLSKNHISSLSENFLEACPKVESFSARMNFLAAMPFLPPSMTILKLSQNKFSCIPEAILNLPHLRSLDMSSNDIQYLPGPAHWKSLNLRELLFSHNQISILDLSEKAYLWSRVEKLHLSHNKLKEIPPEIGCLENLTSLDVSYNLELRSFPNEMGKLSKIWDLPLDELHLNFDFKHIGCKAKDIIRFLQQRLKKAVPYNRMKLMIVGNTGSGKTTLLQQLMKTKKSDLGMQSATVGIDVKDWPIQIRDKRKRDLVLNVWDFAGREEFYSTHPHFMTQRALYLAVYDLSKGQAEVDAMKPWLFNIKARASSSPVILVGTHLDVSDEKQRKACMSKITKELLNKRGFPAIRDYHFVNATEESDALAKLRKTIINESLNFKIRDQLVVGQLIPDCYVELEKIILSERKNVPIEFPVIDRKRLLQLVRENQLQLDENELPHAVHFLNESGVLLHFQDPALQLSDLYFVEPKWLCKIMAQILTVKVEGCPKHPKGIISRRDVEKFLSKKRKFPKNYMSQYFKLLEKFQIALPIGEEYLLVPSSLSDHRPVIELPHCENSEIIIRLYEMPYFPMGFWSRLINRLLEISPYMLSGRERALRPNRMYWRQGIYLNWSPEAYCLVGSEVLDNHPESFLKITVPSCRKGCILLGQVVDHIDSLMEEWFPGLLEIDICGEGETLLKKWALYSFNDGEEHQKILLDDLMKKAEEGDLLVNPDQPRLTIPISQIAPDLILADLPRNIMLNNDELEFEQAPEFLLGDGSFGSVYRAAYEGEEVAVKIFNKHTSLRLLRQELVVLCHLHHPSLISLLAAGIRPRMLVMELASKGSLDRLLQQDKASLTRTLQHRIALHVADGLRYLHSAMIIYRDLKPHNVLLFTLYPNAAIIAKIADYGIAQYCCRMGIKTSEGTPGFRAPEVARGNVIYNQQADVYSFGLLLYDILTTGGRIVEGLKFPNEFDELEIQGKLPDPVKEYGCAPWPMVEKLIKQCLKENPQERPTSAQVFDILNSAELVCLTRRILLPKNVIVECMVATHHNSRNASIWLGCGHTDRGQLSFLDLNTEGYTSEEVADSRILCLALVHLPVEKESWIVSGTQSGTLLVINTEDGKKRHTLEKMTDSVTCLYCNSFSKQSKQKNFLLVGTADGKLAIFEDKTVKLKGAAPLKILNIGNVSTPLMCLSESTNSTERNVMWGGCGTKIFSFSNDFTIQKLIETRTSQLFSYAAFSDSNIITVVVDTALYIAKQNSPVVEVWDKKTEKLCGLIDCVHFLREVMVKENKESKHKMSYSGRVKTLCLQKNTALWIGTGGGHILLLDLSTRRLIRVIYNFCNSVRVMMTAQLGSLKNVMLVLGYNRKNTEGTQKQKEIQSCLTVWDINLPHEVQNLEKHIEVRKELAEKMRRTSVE

Compound	DC50 [1]	Dmax [2]	Dmax [3]	DC50 [4]	further results
COc1c(N2CCN(C[C@H]3CC[C@H](OC4CCN(c5cc(-c6[nH]nc7ccc(OC8(C)CC8)cc67)ncn5)CC4)CC3)CC2)ccc2c1CN(C1CCC(=O)NC1=O)C2=O (stereo partly drawn) [Compound 252, 3-[4-methoxy-1-oxo-5-(4-{[(1r,4r)-4-[(1-{6-[5-(1-methylcyclopropoxy)-2H-indazol-3-yl]pyrimidin-4-yl}piperidin-4-yl)oxy]cyclohexyl]methyl}piperazin-1-yl)-2,3-dihydro-1H-isoindol-2-yl]piperidine-2,6-dione]	< 0.01 µM	50 to 70%			
CC1(Oc2ccc3n[nH]c(-c4cc(N5CCN(C[C@H]6C[C@H](OC7CCN(c8ccc9c(c8F)CN(C8CCC(=O)NC8=O)C9=O)CC7)C6)CC5)ncn4)c3c2)CC1 (stereo partly drawn) [Compound 300, 3-(4-fluoro-1-oxo-5-{4-[(1r,3r)-3-[(4-{6-[5-(1-methylcyclopropoxy)-2H-indazol-3-yl]pyrimidin-4-yl}piperazin-1-yl)methyl]cyclobutoxy]piperidin-1-yl}-2,3-dihydro-1H-isoindol-2-yl)piperidine-2,6-dione]			50 to 70%	< 0.01 µM	
CC1(Oc2ccc3[nH]nc(-c4cc(N5CCC(CN6CCC(F)(CN7CCN(c8cc9c(cc8F)C(=O)N(C8CCC(=O)NC8=O)C9)CC7)CC6)CC5)ncn4)c3c2)CC1 (stereo not drawn) [Compound 188, 3-[6-fluoro-5-[4-[[4-fluoro-1-[[1-[6-[5-(1-methylcyclopropoxy)-1H-indazol-3-yl]pyrimidin-4-yl]-4-piperidyl]methyl]-4-piperidyl]methyl]piperazin-1-yl]-1-oxo-isoindolin-2-yl]piperidine-2,6-dione]					Dmax (endogenous HiBit-tagged LRRK2, HEK293 cells, 24 hours, read-out: **Endogenous WT Dmax (%)): ≥ 70%; DC50 (endogenous HiBit-tagged LRRK2, HEK293 cells, 24 hours, read-out: *Endogenous WT DC50): < 0.01 µM
COc1c(N2CC3(CCN(CCOC4CCN(c5cc(-c6n[nH]c7ccc(OC8(C)CC8)cc67)ncn5)CC4)CC3(F)F)C2)ccc2c1CN(C1CCC(=O)NC1=O)C2=O (stereo not drawn) [Compound 357, 3-[5-(5,5-difluoro-7-{2-[(1-{6-[5-(1-methylcyclopropoxy)-1H-indazol-3-yl]pyrimidin-4-yl}piperidin-4-yl)oxy]ethyl}-2,7-diazaspiro[3.5]nonan-2-yl)-4-methoxy-1-oxo-2,3-dihydro-1H-isoindol-2-yl]piperidine-2,6-dione]	< 0.01 µM	50 to 70%			
Cc1cc(-c2n[nH]c3ccc(OC4(C)CC4)cc23)cc(N2CCN(C[C@H]3CC[C@H](OC4CCN(c5ccc6c(c5F)CN(C5CCC(=O)NC5=O)C6=O)CC4)CC3)CC2)n1 (stereo partly drawn) [Compound 379, 3-[4-fluoro-1-oxo-5-(4-{[(1r,4r)-4-[(4-{6-methyl-4-[5-(1-methylcyclopropoxy)-1H-indazol-3-yl]pyridin-2-yl}piperazin-1-yl)methyl]cyclohexyl]oxy}piperidin-1-yl)-2,3-dihydro-1H-isoindol-2-yl]piperidine-2,6-dione]	< 0.01 µM	50 to 70%			
COc1c(N2CCN(C[C@H]3CC[C@H](CN4CCN(c5cc(-c6n[nH]c7cnc(OC8(C)CC8)cc67)ncn5)CC4)CC3)CC2)ccc2c1CN(C1CCC(=O)NC1=O)C2=O (stereo partly drawn) [Compound 261, 3-[4-methoxy-1-oxo-5-(4-{[(1r,4r)-4-[(4-{6-[5-(1-methylcyclopropoxy)-1H-pyrazolo[3,4-c]pyridin-3-yl]pyrimidin-4-yl}piperazin-1-yl)methyl]cyclohexyl]methyl}piperazin-1-yl)-2,3-dihydro-1H-isoindol-2-yl]piperidine-2,6-dione]			50 to 70%	< 0.01 µM	

Continued, in another order:

DC50 [1]	Dmax [2]	Dmax [3]	DC50 [4]	Compound	further results
		50 to 70%	< 0.01 µM	COc1c(N2CCC(CN3CC[C@@H](OC4CCN(c5cc(-c6n[nH]c7ccc(OC8(C)CC8)cc67)ncn5)CC4)CC3(C)C)CC2)ccc2c1CN(C1CCC(=O)NC1=O)C2=O (stereo partly drawn) [Compound 319, 3-(5-(4-(((R)-2,2-dimethyl-4-((1-(6-(5-(1-methylcyclopropoxy)-1H-indazol-3-yl)pyrimidin-4-yl)piperidin-4-yl)oxy)piperidin-1-yl)methyl)piperidin-1-yl)-4-methoxy-1-oxoisoindolin-2-yl)piperidine-2,6-dione]	
< 0.01 µM	≥ 70%			CC1(Oc2ccc3[nH]nc(-c4cc(N5CCC(CN6CCC(F)(CN7CCN(c8c(F)cc9c(c8F)CN(C8CCC(=O)NC8=O)C9=O)CC7)CC6)CC5)ncn4)c3c2)CC1 (stereo not drawn) [Compound 373, 3-{4,6-difluoro-5-[4-({4-fluoro-1-[(1-{6-[5-(1-methylcyclopropoxy)-1H-indazol-3-yl]pyrimidin-4-yl}piperidin-4-yl)methyl]piperidin-4-yl}methyl)piperazin-1-yl]-1-oxo-2,3-dihydro-1H-isoindol-2-yl}piperidine-2,6-dione]	
		≥ 70%	< 0.01 µM	COc1c(N2CCC(CN3[C@H](C)CN(CC4CCN(c5cc(-c6n[nH]c7ccc(OC8(C)CC8)cc67)ncn5)CC4)C[C@@H]3C)CC2)ccc2c1CN(C1CCC(=O)NC1=O)C2=O (stereo partly drawn) [Compound 288, 3-[5-(4-{[(2R,6S)-2,6-dimethyl-4-[(1-{6-[5-(1-methylcyclopropoxy)-1H-indazol-3-yl]pyrimidin-4-yl}piperidin-4-yl)methyl]piperazin-1-yl]methyl}piperidin-1-yl)-4-methoxy-1-oxo-2,3-dihydro-1H-isoindol-2-yl]piperidine-2,6-dione]	
		≥ 70%	< 0.01 µM	CC1(Oc2ccc3[nH]nc(-c4cc(N5CCC(CN6CCN(C(C)(C)C7CCN(c8ccc9c(c8F)CN(C8CCC(=O)NC8=O)C9=O)CC7)CC6)CC5)ncn4)c3c2)CC1 (stereo not drawn) [Compound 309, 3-{4-fluoro-5-[4-(2-{4-[(1-{6-[5-(1-methylcyclopropoxy)-1H-indazol-3-yl]pyrimidin-4-yl}piperidin-4-yl)methyl]piperazin-1-yl}propan-2-yl)piperidin-1-yl]-1-oxo-2,3-dihydro-1H-isoindol-2-yl}piperidine-2,6-dione]	
		50 to 70%	< 0.01 µM	COc1c(N2CCC(CN3CCN(C[C@@H]4CCN(c5cc(-c6n[nH]c7ccc(OC8(C)CC8)cc67)ncn5)C4)CC3)CC2)ccc2c1CN(C1CCC(=O)NC1=O)C2=O (stereo partly drawn) [Compound 311, 3-(4-methoxy-5-{4-[(4-{[(3S)-1-{6-[5-(1-methylcyclopropoxy)-1H-indazol-3-yl]pyrimidin-4-yl}pyrrolidin-3-yl]methyl}piperazin-1-yl)methyl]piperidin-1-yl}-1-oxo-2,3-dihydro-1H-isoindol-2-yl)piperidine-2,6-dione]	
		50 to 70%	< 0.01 µM	CC1(Oc2cc3c(-c4cc(N5CCC(CN6CCN(CC7CCN(c8ccc9c(c8F)CN(C8CCC(=O)NC8=O)C9=O)CC7)CC6(C)C)CC5)ncn4)n[nH]c3cc2F)CC1 (stereo not drawn) [Compound 274, 3-{4-fluoro-5-[4-({4-[(1-{6-[6-fluoro-5-(1-methylcyclopropoxy)-1H-indazol-3-yl]pyrimidin-4-yl}piperidin-4-yl)methyl]-3,3-dimethylpiperazin-1-yl}methyl)piperidin-1-yl]-1-oxo-2,3-dihydro-1H-isoindol-2-yl}piperidine-2,6-dione]	

— patent US12559506B2, “Indazole based compounds and associated methods of use” (Arvinas Operations, Inc., priority 2021, dated 2026)
